Where a SMILES comes first, the peptide text is derived from it. [ ]: non-standard residue; d: D form. The star is where a group is joined. 1Nal = N[C@@H](Cc1cccc2ccccc12)C(=O)O; Tridecanoyl = CCCCCCCCCCCCC(=O)*; Nle = CCCC[C@H](N)C(=O)O; Octanoyl = CCCCCCCC(=O)*; Dap = NC[C@H](N)C(=O)O
Legend:
fasted C57BL/6 mice [1] = experiment: Food intake in fasted mice after SC administration; type: in vivo, mouse; details: SC administration; for % control: food intake vs saline
Summary of the method: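 Male C57BL/6 mice, food-deprived 17 h, received saline, PrRP or lipidated analogs either SC at 1-10 mg/kg or ICV into the third ventricle at 4 nmol/mouse.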

fasted C57BL/6 mice [2] = experiment: Food intake in fasted mice after ICV administration; type: in vivo; details: 4 nmol/mouse; for % control: food intake vs saline
Description: Male C57BL/6 mice (An Lab, Prague 4) were bred in the accredited animal facility in the Institute of Organic Chemistry and Biochemistry, Czech Academy of Sciences, Prague, at the Institute of Molecular Genetics, Prague 4, at the temperature of 22±2° C. with access to food and water ad libitum. The day/night cycle was 12/12 hours (light turned on at 6:00 am). Animals were treated according to the Animal Protection Act (Act No. 246/1992). The males were fed standard chow diet St-1 (Mlýn Kocanda, Praha, Czech Republic) which contained 66% saccharides, 25% proteins and 9% lipids with a caloric value of 3.4 kcal/g.
The food was withdrawn 17 hours prior to injection of lipidated peptide and free access to water was maintained. The administration of saline, PrRP or lipidated analogs was performed either by SC injection at doses of 1-10 mg/kg (volume 0.2 ml/mouse), or by ICV using infusion pump (cannulae were inserted into the third brain ventricle 4 days before the experiment following the procedure of Maixnerová et al. (Maixnerová et al., 2011)). The single dose of peptide was 4 nmol/mouse (5 μl/mouse).
Fifteen minutes after the lipidated peptide administration, the mice were given pre-weighed food. The food was then weighed every 30 minutes for 5-10 hours. The administration of every dose was performed at least twice and one group of mice consisted of at least 6 mice. The results were presented as % of food intake as compared with the control group injected with saline.
Statistical evaluation was performed using program Graph-Pad Prism Software (San Diego, Calif., USA), and the one-way ANOVA with a subsequent Dunnettovým post-hoc test. The difference in food intake between mice injected with saline and mice injected with the examined peptide were considered statistically significant at P<0.05.

[3] = test system: MAPK/ERK1/2 signaling pathway in RC-4B/C cells; experiment: MAPK/ERK1/2 signaling in RC-4B/C cells (Western blot); type: cell-based, rat; details: 10^−6 mol·l^−1, 5 minute incubation
Description: RC-4B/C cells, which were used to determine if lipidated PrRP20 analogs are able to initiate the MAPK/ERK1/2 signaling pathway, were grown in 6-well plates up to the optimal density of […]. Seventeen hours before sample harvest, the growth medium was replaced by a serum-free medium lacking epidermal growth factor (EGF). The respective lipidated PrRP analog was added to each well in the final concentration of 10^−6 mol·l^−1. After a 5 minute incubation at 37° C., the plate was placed on ice and each well was rinsed three times with PBS pH 7.4 (137 mmol·l^−1 NaCl, 2.7 mmol·l^−1 KCl, 8 mmol·l^−1 Na2HPO4.2H2O a 1.76 mmol·l^−1 KH2PO4) and cooled to 4° C. […] Samples were collected in at least three independent experiments.
To determine if the lipidated PrRP20 analogs initiated the MAPK/ERK1/2 signaling pathway, Western blot analysis was used. Electrophoresis was performed on 5%/12% polyacrylamide gel in the presence of SDS (SDS-PAGE) on the instrument MiniProtean 3 (BioRad, Herkules, Calif., USA). Samples that were loaded on the gel were first disintegrated by ultrasound, then heated at 100° C. for 2 minutes, and centrifuged for 5 minutes at 500×g at room temperature. […] Electrophoresis was performed at a constant voltage of 100 V for 10 minutes, or for 60 minutes at 150 V.
To show the presence of phosphorylated proteins in the samples, the proteins from the SDS-PAGE gel were transferred to the Immobilon™-P PVDF (polyvinylidene difluoride) membrane (Sigma-Aldrich, USA). The transfer was performed in blotting buffer at pH 8.3 (25 mmol·l^−1 Tris, 192 mmol·l^−1 glycine and 20% methanol) for 20 hours at 4° C. at a constant voltage of 30 V.
After the protein transfer to the PVDF membrane, the membranes were washed for 5 minutes in TBS washing buffer (20 mmol·l^−1 Tris, 140 mmol·l^−1 NaCl and 0.1% Tween-20) and then incubated for 1 hour in blocking buffer (TBS with 5% non-fat milk powder and 5 mmol·l^−1 Na3VO4 and 50 mmol·l^−1 NaF) at room temperature. Further, the membranes were washed three times for 5 minutes using the TBS washing buffer. The membranes were then incubated with the primary antibody against phospho-p44/42 MAPK(Thr202/Tyr204) (Cell Signaling Technology, Beverly, USA) which was diluted in blocking buffer at 1:1000. After the next three washes with the TBS washing buffer for 5 minutes, the membranes were incubated for 1 hour with rabbit secondary antibody labeled with peroxidase (Sigma, St. Louis, USA) which was diluted in blocking buffer at 1:12,000.
The membranes were then washed three times in TBS washing buffer for 5 minutes and then the solution Femto (Pierce SuperSignal, Thermo Fisher Scientific, Rockford, Ill., USA) was applied. The induced chemiluminiscence was detected by a CCD camera (LAS 3000, Fuji Photo Film GmBH, Düsseldorf, Germany).
To assess the initiation of signaling pathways, a densitometric analysis using the program Quantity One (BioRad, Hercules, Calif., USA) was used. For statistical evaluation of the statistically significant response of the cellular signaling, one-way ANOVA with subsequent Dunnett post-hoc test was used. Data was statistically significant at P<0.05.

[4] = target: T1, rat PrRP receptor (GPR10) in RC-4B/C cells (Rattus norvegicus, UniProt Q64121); experiment: Competitive binding to rat pituitary RC-4B/C cells; details: ^125I-rat PrRP31, RC-4B/C cells
T1 construct: host or cells: RC-4B/C rat pituitary cell line
T1 sequence (Q64121 1-370): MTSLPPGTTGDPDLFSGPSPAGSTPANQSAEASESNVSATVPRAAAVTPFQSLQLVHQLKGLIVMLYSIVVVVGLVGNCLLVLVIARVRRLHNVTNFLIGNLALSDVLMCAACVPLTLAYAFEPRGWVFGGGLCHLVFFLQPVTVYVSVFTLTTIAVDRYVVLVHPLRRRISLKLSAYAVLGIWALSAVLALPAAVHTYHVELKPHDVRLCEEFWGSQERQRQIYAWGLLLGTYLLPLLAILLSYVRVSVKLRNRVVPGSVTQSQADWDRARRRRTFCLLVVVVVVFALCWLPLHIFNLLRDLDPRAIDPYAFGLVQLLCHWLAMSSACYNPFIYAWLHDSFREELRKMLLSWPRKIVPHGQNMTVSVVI
Description: Competitive binding experiments were performed according to Motulsky and Neubig (Motulsky, A., et al., “Analyzing radioligand binding data,” Curr Protoc Neurosci, Chapter 7, Unit 7.5, 2002). The rat pituitary cell line RC-4B/C (ATCC, Manassas, USA) was grown on 24-well plates which had their bottom coated with polyethyleneimine. The cells were grown to the optimal density of 300-450 thousand per well. […] Plates were incubated for 60 minutes at room temperature. After incubation, the cells were solubilized in 0.1 mol/l solution of NaOH and the radioactivity bound to the cells was counted using a γ-counter. The experiments were performed in duplicate and repeated at least three times. For evaluation of competitive binding experiments, the program Graph Pad Prism Software (San Diego, Calif., USA) was used. A method of nonlinear regression assuming one-site binding was used.

[5] = 45 minutes, dose not stated for these substances
[6] = 300 minutes, dose not stated for these substances

SMILES | food intake (fasted C57BL/6 mice [1]; 45 minutes, 10 mg/kg) [g] | % control (fasted C57BL/6 mice [1]; 45 minutes, 10 mg/kg) [%] | food intake (fasted C57BL/6 mice [1]; 300 minutes, 10 mg/kg) [g] | % control (fasted C57BL/6 mice [1]; 300 minutes, 10 mg/kg) [%] | food intake (fasted C57BL/6 mice [2]; 45 minutes) [g] | % control (fasted C57BL/6 mice [2]; 45 minutes) [%] | food intake (fasted C57BL/6 mice [2]; 300 minutes) [g] | % control (fasted C57BL/6 mice [2]; 300 minutes) [%] | ERK signaling [3] | % of PrRP31 binding [4] [%] | food intake (fasted C57BL/6 mice [1]; 45 minutes, 5 mg/kg) [g] | % control (fasted C57BL/6 mice [1]; 45 minutes, 5 mg/kg) [%] | food intake (fasted C57BL/6 mice [1]; 300 minutes, 5 mg/kg) [g] | % control (fasted C57BL/6 mice [1]; 300 minutes, 5 mg/kg) [%] | food intake (fasted C57BL/6 mice [1]; [5]) [g] | % control (fasted C57BL/6 mice [1]; [5]) [%] | food intake (fasted C57BL/6 mice [1]; [6]) [g] | % control (fasted C57BL/6 mice [1]; [6]) [%]
CCCC[C@H](NC(=O)[C@H](CO)NC(=O)[C@H](Cc1c[nH]cn1)NC(=O)[C@H](CCC(N)=O)NC(=O)[C@H](Cc1c[nH]cn1)NC(=O)[C@H](C)NC(=O)[C@H](CCCNC(=N)N)NC(=O)[C@@H](N)CN)C(=O)N[C@@H](CCC(=O)O)C(=O)N[C@H](C(=O)N[C@@H](CCCNC(=N)N)C(=O)N[C@H](C(=O)N1CCC[C@H]1C(=O)N[C@@H](CC(=O)O)C(=O)N[C@H](C(=O)N[C@@H](CC(N)=O)C(=O)N1CCC[C@H]1C(=O)N[C@@H](C)C(=O)N[C@@H](Cc1c[nH]c2ccccc12)C(=O)N[C@@H](Cc1ccc(O)cc1)C(=O)N[C@H](C(=O)NCC(=O)N[C@@H](CCCNC(=N)N)C(=O)NCC(=O)N[C@H](C(=O)N[C@@H](CCCNC(=N)N)C(=O)N1CCC[C@H]1C(=O)N[C@H](C(=O)NCC(=O)N[C@@H](CCCNC(=N)N)C(=O)N[C@@H](Cc1ccccc1)C(N)=O)C(C)C)[C@@H](C)CC)[C@@H](C)O)[C@@H](C)CC)[C@@H](C)O)[C@@H](C)O [Analog 1] (H-[Dap]RAHQHS[Nle]ETRTPDINPAWYTGRGIRPVGRF-NH2) | 0.38 | 117 | 1.05 | 97 | 0.39 | 70 | 0.71 | 53 | agonist | 132 | – | – | – | – | – | – | – | –
CCCCCCCCCCCCC(=O)NC[C@H](N)C(=O)N[C@@H](CCCNC(=N)N)C(=O)N[C@@H](C)C(=O)N[C@@H](Cc1c[nH]cn1)C(=O)N[C@@H](CCC(N)=O)C(=O)N[C@@H](Cc1c[nH]cn1)C(=O)N[C@@H](CO)C(=O)N[C@@H](CCCC)C(=O)N[C@@H](CCC(=O)O)C(=O)N[C@H](C(=O)N[C@@H](CCCNC(=N)N)C(=O)N[C@H](C(=O)N1CCC[C@H]1C(=O)N[C@@H](CC(=O)O)C(=O)N[C@H](C(=O)N[C@@H](CC(N)=O)C(=O)N1CCC[C@H]1C(=O)N[C@@H](C)C(=O)N[C@@H](Cc1c[nH]c2ccccc12)C(=O)N[C@@H](Cc1ccc(O)cc1)C(=O)N[C@H](C(=O)NCC(=O)N[C@@H](CCCNC(=N)N)C(=O)NCC(=O)N[C@H](C(=O)N[C@@H](CCCNC(=N)N)C(=O)N1CCC[C@H]1C(=O)N[C@H](C(=O)NCC(=O)N[C@@H](CCCNC(=N)N)C(=O)N[C@@H](Cc1ccccc1)C(N)=O)C(C)C)[C@@H](C)CC)[C@@H](C)O)[C@@H](C)CC)[C@@H](C)O)[C@@H](C)O [Analog 4] (H-[Dap](Tridecanoyl)RAHQHS[Nle]ETRTPDINPAWYTGRGIRPVGRF-NH2) | – | – | – | – | 0.38 | 71 | 1.4 | 105 | agonist | 967 | 0.07 | 30 | 1.04 | 101 | – | – | – | –
CCCCCCCC(=O)NC[C@H](N)C(=O)N[C@@H](CCCNC(=N)N)C(=O)N[C@@H](C)C(=O)N[C@@H](Cc1c[nH]cn1)C(=O)N[C@@H](CCC(N)=O)C(=O)N[C@@H](Cc1c[nH]cn1)C(=O)N[C@@H](CO)C(=O)N[C@@H](CCCC)C(=O)N[C@@H](CCC(=O)O)C(=O)N[C@H](C(=O)N[C@@H](CCCNC(=N)N)C(=O)N[C@H](C(=O)N1CCC[C@H]1C(=O)N[C@@H](CC(=O)O)C(=O)N[C@H](C(=O)N[C@@H](CC(N)=O)C(=O)N1CCC[C@H]1C(=O)N[C@@H](C)C(=O)N[C@@H](Cc1c[nH]c2ccccc12)C(=O)N[C@@H](Cc1ccc(O)cc1)C(=O)N[C@H](C(=O)NCC(=O)N[C@@H](CCCNC(=N)N)C(=O)NCC(=O)N[C@H](C(=O)N[C@@H](CCCNC(=N)N)C(=O)N1CCC[C@H]1C(=O)N[C@H](C(=O)NCC(=O)N[C@@H](CCCNC(=N)N)C(=O)N[C@@H](Cc1cccc2ccccc12)C(N)=O)C(C)C)[C@@H](C)CC)[C@@H](C)O)[C@@H](C)CC)[C@@H](C)O)[C@@H](C)O [Analog 8] (H-[Dap](Octanoyl)RAHQHS[Nle]ETRTPDINPAWYTGRGIRPVGR[1Nal]-NH2) | – | – | – | – | 0.34 | 60 | 1.05 | 79 | agonist | 13 | – | – | – | – | 0.17 | 76 | 0.78 | 90

— patent publication US9937235B2, “Lipidated peptides as anti-obesity agents” (USTAV ORGANICKE CHEMIE A BIOCHEMIE AKADEMIE VED CR, V.V.I, priority 2012, dated 2018)
